Data as given in patent US10517889B2, “Modulators of SMAD7 expression” (Ionis Pharmaceuticals, Inc., priority 2017, dated 2019).

Key:
[1] = test system: human peripheral blood mononuclear cells (PBMCs); test: Human PBMC activation assay, cytokine levels (IL-10, IL-6, MCP-1, TNF-α) in supernatant after 24 hours (Example 9); conditions: human PBMC supernatant after 24 hours
Method: Ionis SMAD7 oligonucleotides were tested in an in vitro assay for potential immunostimulatory properties in an in vitro human peripheral blood mononuclear cell (PBMC) activation assay.
Blood samples were collected from healthy human volunteers in heparinized vials and mixed well. Human PBMCs were isolated by gradient centrifugation using Ficoll-Histopaque. The cells were washed, counted and resuspended in medium. The PBMCs were plated in a 24-well culture plate and various concentrations of oligonucleotides were added to the media. An oligonucleotide historically known to promote an inflammatory response was used as a positive control, whereas an oligonucleotide known not to be pro-inflammatory was used as a negative control. […] The supernatants were collected after 24 hours and analyzed for cytokine levels using MSD platform.

[2] = Plasma chemistry markers after subcutaneous administration in beagle dogs (Example 8); conditions: 30 mg/kg subcutaneous days 1, 3, 5, 8, 15, 22, 29, plasma at day 31
human SMAD7 mRNA = test: Antisense inhibition of human SMAD7 mRNA expression in Hep3B cells by 3-10-3 cEt gapmers, 10,000 nM, electroporation (Example 2); assay type: cell-based; conditions: Hep3B cells, electroporation with 10,000 nM antisense oligonucleotide, approximately 24 hours, SMAD7 mRNA by RT-PCR (RTS5062), relative to untreated control cells
How it was run: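 qRT-PCR (RTS5062) of SMAD7 mRNA, normalised to RIBOGREEN total RNA, gave percent inhibition relative to untreated controls. Hep3B cells at 20,000 per well received 10,000 nM oligonucleotide by electroporation, with ~24 h treatment.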

[3] = Body and organ weights after oral gavage in CD-1 mice (Example 7); assay type: in vivo; conditions: 500 mg/kg oral gavage once daily for 4 weeks, end of study
Method: (§1) Groups of 7-8 week old male CD-1 mice were given an oral gavage dose once daily for 4 weeks of 500 mg/kg of Ionis SMAD7 oligonucleotides. Each group contained 8 mice. One group of male CD-1 mice was administered saline by oral gavage daily.
Final body weights were measured at the end of the study. There was no significant difference in the body weight of the mice treated with antisense oligonucleotide compared to the control.
None of the Ionis SMAD7 oligonucleotides caused any changes in organ weights outside the expected range for antisense oligonucleotides.

mouse Smad7 mRNA = test: Pharmacology: mouse Smad7 mRNA expression in liver, kidney, duodenum, ileum and colon after subcutaneous administration in CD-1 mice (Example 6); assay type: in vivo; conditions: 50 mg/kg subcutaneous twice weekly for 7 weeks, normalized to GAPDH
How it was run: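 Male CD-1 mice, 8-9 weeks old, got 50 mg/kg oligonucleotide subcutaneously twice weekly (100 mg/kg/week) for 7 weeks, with PBS controls; n=4 per group. At necropsy, Smad7 mRNA in liver, kidney, duodenum, ileum and colon was measured by RT-PCR (probe set HTS7555), normalized to GAPDH; one-way ANOVA with Dunnett's test.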

[4] = Blood chemistry markers after oral gavage in CD-1 mice (Example 7); assay type: in vivo; conditions: 500 mg/kg oral gavage once daily for 4 weeks, day 30
Method: The objective of this study was to evaluate the tolerability and pharmacodynamics of select Ionis human SMAD7 antisense oligonucleotides in CD-1 mice following 4 weeks of treatment. The mice were administered oligonucleotides by oral gavage.
as §1
Levels of transaminases, albumin, and BUN were measured using a Toshiba 200FR NEO chemistry analyzer (Toshiba Co., Japan).

[5] = Oligonucleotide concentration in tissues by LC-MS/MS after subcutaneous administration in beagle dogs (Example 8); assay type: in vivo; conditions: 30 mg/kg subcutaneous, 48 hours after the last dose
Method: There were 4 animals per group.
Oligonucleotide concentrations of both ION 830025 and ION 798781 were detected in various tissues by LC-MS/MS analysis. The results are presented below, expressed as μg/g tissue. The data was collected 48 hours after the last dose.

Substance: 830037 (antisense CTATTGGCTGATCTGG; 3-10-3 cEt gapmer, further chemistry not given here) [compound 830037]
- Levels of IL-6 ([1]; 0.0128 μM oligonucleotide): 3.8 pg/mL
- Levels of IL-10 ([1]; 0.0128 μM oligonucleotide): 1.6 pg/mL
- Levels of MCP-1 ([1]; 0.0128 μM oligonucleotide): 369.4 pg/mL
- Levels of TNF-α ([1]; 0.0128 μM oligonucleotide): 3.2 pg/mL
- Levels of IL-6 ([1]; 0.064 μM oligonucleotide): 9.8 pg/mL
- Levels of IL-10 ([1]; 0.064 μM oligonucleotide): 3.2 pg/mL
- Levels of MCP-1 ([1]; 0.064 μM oligonucleotide): 557.1 pg/mL
- Levels of TNF-α ([1]; 0.064 μM oligonucleotide): 4.1 pg/mL
- Levels of IL-6 ([1]; 0.32 μM oligonucleotide): 26.7 pg/mL
- Levels of IL-10 ([1]; 0.32 μM oligonucleotide): 8.2 pg/mL
- Levels of MCP-1 ([1]; 0.32 μM oligonucleotide): 1284.2 pg/mL
- Levels of TNF-α ([1]; 0.32 μM oligonucleotide): 8.2 pg/mL
- Levels of IL-6 ([1]; 1.6 μM oligonucleotide): 38.6 pg/mL
- Levels of IL-10 ([1]; 1.6 μM oligonucleotide): 9.5 pg/mL
- Levels of MCP-1 ([1]; 1.6 μM oligonucleotide): 1085.9 pg/mL
- Levels of TNF-α ([1]; 1.6 μM oligonucleotide): 9.2 pg/mL
- Levels of IL-6 ([1]; 8 μM oligonucleotide): 38.4 pg/mL
- Levels of IL-10 ([1]; 8 μM oligonucleotide): 7.1 pg/mL
- Levels of MCP-1 ([1]; 8 μM oligonucleotide): 1917.1 pg/mL
- Levels of TNF-α ([1]; 8 μM oligonucleotide): 11.1 pg/mL
- Levels of IL-6 ([1]; 40 μM oligonucleotide): 58.7 pg/mL
- Levels of IL-10 ([1]; 40 μM oligonucleotide): 4.7 pg/mL
- Levels of MCP-1 ([1]; 40 μM oligonucleotide): 3414.8 pg/mL
- Levels of TNF-α ([1]; 40 μM oligonucleotide): 16.6 pg/mL
- Levels of IL-6 ([1]; 200 μM oligonucleotide): 71.2 pg/mL
- Levels of IL-10 ([1]; 200 μM oligonucleotide): 3.8 pg/mL
- Levels of MCP-1 ([1]; 200 μM oligonucleotide): 2449.3 pg/mL
- Levels of TNF-α ([1]; 200 μM oligonucleotide): 18.9 pg/mL
- ALT [2]: 3091 IU/L
- AST [2]: 1132 IU/L
- Albumin [2]: 3.7 g/dL
- BUN [2]: 21.2 mg/dL
- Bilirubin [2]: 0.8 mg/dL
- Creatine [2]: 1.0 mg/dL
- % Inhibition (human SMAD7 mRNA): 67%
- Body weight [3]: 35 g
- Heart weight [3]: 0.17 g
- Kidneys weight [3]: 0.69 g
- Liver with gallbladder weight [3]: 1.93 g
- Spleen weight [3]: 0.10 g
- % inhibition of Smad7 mRNA expression (compared to control), Kidney (mouse Smad7 mRNA): 7%
- % inhibition of Smad7 mRNA expression (compared to control), Liver (mouse Smad7 mRNA): 24%
- ALT [4]: 62 IU/L
- AST [4]: 94 IU/L
- Albumin [4]: 3.3 g/dL
- BUN [4]: 26 mg/dL
- Bilirubin [4]: 0.3 mg/dL
- Full length oligonucleotide, Distal colon [5]: 46 µg/g
- Full length oligonucleotide, Duodenum [5]: 55 µg/g
- Full length oligonucleotide, Ileum [5]: 67 µg/g
- Full length oligonucleotide, Kidney [5]: 894 µg/g
- Full length oligonucleotide, Liver [5]: 521 µg/g
- Full length oligonucleotide, Proximal colon [5]: 86 µg/g

Substance: 830121 (AGAATCAAGCCCTGGC; 3-10-3 cEt gapmer, further chemistry not given here) [compound 830121]
- Levels of IL-6 ([1]; 0.0128 μM oligonucleotide): 4.1 pg/mL
- Levels of IL-10 ([1]; 0.0128 μM oligonucleotide): 2.0 pg/mL
- Levels of MCP-1 ([1]; 0.0128 μM oligonucleotide): 324.5 pg/mL
- Levels of TNF-α ([1]; 0.0128 μM oligonucleotide): 3.0 pg/mL
- Levels of IL-6 ([1]; 0.064 μM oligonucleotide): 4.9 pg/mL
- Levels of IL-10 ([1]; 0.064 μM oligonucleotide): 1.3 pg/mL
- Levels of MCP-1 ([1]; 0.064 μM oligonucleotide): 370.4 pg/mL
- Levels of TNF-α ([1]; 0.064 μM oligonucleotide): 3.5 pg/mL
- Levels of IL-6 ([1]; 0.32 μM oligonucleotide): 4.4 pg/mL
- Levels of IL-10 ([1]; 0.32 μM oligonucleotide): 1.3 pg/mL
- Levels of MCP-1 ([1]; 0.32 μM oligonucleotide): 336.4 pg/mL
- Levels of TNF-α ([1]; 0.32 μM oligonucleotide): 3.1 pg/mL
- Levels of IL-6 ([1]; 1.6 μM oligonucleotide): 5.4 pg/mL
- Levels of IL-10 ([1]; 1.6 μM oligonucleotide): 3.1 pg/mL
- Levels of MCP-1 ([1]; 1.6 μM oligonucleotide): 501.8 pg/mL
- Levels of TNF-α ([1]; 1.6 μM oligonucleotide): 3.6 pg/mL
- Levels of IL-6 ([1]; 8 μM oligonucleotide): 7.5 pg/mL
- Levels of IL-10 ([1]; 8 μM oligonucleotide): 3.7 pg/mL
- Levels of MCP-1 ([1]; 8 μM oligonucleotide): 717.1 pg/mL
- Levels of TNF-α ([1]; 8 μM oligonucleotide): 4.8 pg/mL
- Levels of IL-6 ([1]; 40 μM oligonucleotide): 14.3 pg/mL
- Levels of IL-10 ([1]; 40 μM oligonucleotide): 2.2 pg/mL
- Levels of MCP-1 ([1]; 40 μM oligonucleotide): 1225.2 pg/mL
- Levels of TNF-α ([1]; 40 μM oligonucleotide): 9.4 pg/mL
- Levels of IL-6 ([1]; 200 μM oligonucleotide): 35.2 pg/mL
- Levels of IL-10 ([1]; 200 μM oligonucleotide): 1.4 pg/mL
- Levels of MCP-1 ([1]; 200 μM oligonucleotide): 411.0 pg/mL
- Levels of TNF-α ([1]; 200 μM oligonucleotide): 14.2 pg/mL
- ALT [2]: 1454 IU/L
- AST [2]: 383 IU/L
- Albumin [2]: 3.0 g/dL
- BUN [2]: 20.0 mg/dL
- Bilirubin [2]: 2.6 mg/dL
- Creatine [2]: 0.9 mg/dL
- % Inhibition (human SMAD7 mRNA): 69%
- Body weight [3]: 34 g
- Heart weight [3]: 0.17 g
- Kidneys weight [3]: 0.61 g
- Liver with gallbladder weight [3]: 1.92 g
- Spleen weight [3]: 0.10 g
- % inhibition of Smad7 mRNA expression (compared to control), Kidney (mouse Smad7 mRNA): 0%
- % inhibition of Smad7 mRNA expression (compared to control), Liver (mouse Smad7 mRNA): 24%
- ALT [4]: 45 IU/L
- AST [4]: 75 IU/L
- Albumin [4]: 3.3 g/dL
- BUN [4]: 24 mg/dL
- Bilirubin [4]: 0.2 mg/dL
- Full length oligonucleotide, Distal colon [5]: 20 µg/g
- Full length oligonucleotide, Duodenum [5]: 26 µg/g
- Full length oligonucleotide, Ileum [5]: 26 µg/g
- Full length oligonucleotide, Kidney [5]: 1468 µg/g
- Full length oligonucleotide, Liver [5]: 443 µg/g
- Full length oligonucleotide, Proximal colon [5]: 19 µg/g
